The source of these data is patent US10221160B2, “Metalloenzyme inhibitor compounds” (Mycovia Pharmaceuticals, Inc., priority 2012, dated 2019).

Each structure is given as a SMILES string. ≈ marks a conversion by molar mass, not a printed value. Read-outs that look alike come from different tables or passages of the source.

The test deals with C. albicans. The test can be described thus: Minimum Inhibitory Concentration (MIC), CLSI M27-A2. It is filed as cell-based. Particulars: for MIC: Candida albicans. As for the experimental part: A. Minimum Inhibitory Concentration (MIC) Compounds were assessed for their ability to inhibit the growth of common strains of fungus, C. albicans using a standardized procedure (CLSI M27-A2). Stock solutions of the test compounds and standards were prepared in DMSO at 1,600 μg/mL (C. albicans). Eleven, serial, one-half dilutions of compounds were prepared in 96-well plates in RPMI+MOPS. The assay concentration ranges were 8-0.001 μg/mL (C. albicans). Cell suspensions of C. albicans were prepared and added to each well at concentrations of approximately 3.7×10^3 colony-forming-units per milliliter (cfu/mL). All testing was in duplicate. The inoculated plates were incubated for approximately 48 h at 35±1° C. At the completion of incubation the wells of each plate were evaluated visually for the presence of fungal growth. […] For QC purposes C. krusei isolate ATCC 6258 (4.0×10^3 cfu/mL) was included in the VOR assay.

[1] abbreviates: rating scale, read-out: Candida MIC Rating.

For `N#Cc1ccc(-c2ccc(C(F)(F)C(O)(Cn3cnnn3)c3ccc(F)cc3F)nc2)cc1` (centres unmarked) [Example 1, 4-(6-(2-(2,4-Difluorophenyl)-1,1-difluoro-2-hydroxy-3-(1H-tetrazol-1-yl)propyl)pyridin-3-yl)benzonitrile], the MIC (48 h, about 50% growth reduction, approximately 48 h at 35 °C, read-out: Candida MIC) is at most 0.016 µg/mL and the MIC under setting [1] is under 0.5 µg/mL.
Consider `N#Cc1cccc(-c2ccc(C(F)(F)C(O)(Cn3cnnn3)c3ccc(F)cc3F)nc2)c1` (centres unmarked) [Example 3, 3-(6-(2-(2,4-Difluorophenyl)-1,1-difluoro-2-hydroxy-3-(1H-tetrazol-1-yl)propyl)pyridin-3-yl)benzonitrile], for which, under setting [1], the MIC was under 0.5 µg/mL.
On the same count and under the same terms, in the case of `CC(C)Oc1ccc(-c2ccc(C(F)(F)C(O)(Cn3cnnn3)c3ccc(F)cc3F)nc2)cc1` (centres unmarked) [Example 4, 2-(2,4-Difluorophenyl)-1,1-difluoro-1-(5-(4-isopropoxyphenyl)pyridin-2-yl)-3-(1H-tetrazol-1-yl)propan-2-ol] it was under 0.5 µg/mL; in that of `OC(Cn1cnnn1)(c1ccc(F)cc1F)C(F)(F)c1ccc(-c2ccc(F)cc2)cn1` (centres unmarked) [Example 5, 2-(2,4-Difluorophenyl)-1,1-difluoro-1-(5-(4-fluorophenyl)pyridin-2-yl)-3-(1H-tetrazol-1-yl)propan-2-ol], under 0.5 µg/mL.
As to `OC(Cn1cnnn1)(c1ccc(F)cc1F)C(F)(F)c1ccc(-c2cccc(OC(F)(F)F)c2)cn1` (centres unmarked) [Example 6, 2-(2,4-Difluorophenyl)-1,1-difluoro-3-(1H-tetrazol-1-yl)-1-(5-(3-(trifluoromethoxy)phenyl)pyridin-2-yl)propan-2-ol], under setting [1], the MIC was under 0.5 µg/mL.
`OC(Cn1cnnn1)(c1ccc(F)cc1F)C(F)(F)c1ccc(-c2ccc(OC(F)(F)F)cc2)cn1` (centres unmarked) [Example 7, 2-(2,4-Difluorophenyl)-1,1-difluoro-3-(1H-tetrazol-1-yl)-1-(5-(4-(trifluoromethoxy)phenyl)pyridin-2-yl) propan-2-ol]: the MIC under setting [1] was under 0.5 µg/mL.
Same read-out and setting: then `OC(Cn1cnnn1)(c1ccc(F)cc1F)C(F)(F)c1ccc(-c2cccc(Cl)c2)cn1` (centres unmarked) [Example 8, 1-(5-(3-Chlorophenyl)pyridin-2-yl)-2-(2,4-difluorophenyl)-1,1-difluoro-3-(1H-tetrazol-1-yl)propan-2-ol], with under 0.5 µg/mL; and `OC(Cn1cnnn1)(c1ccc(F)cc1F)C(F)(F)c1ccc(-c2ccc(Cl)cc2)cn1` (centres unmarked) [Example 9, 1-(5-(4-Chlorophenyl)pyridin-2-yl)-2-(2,4-difluorophenyl)-1,1-difluoro-3-(1H-tetrazol-1-yl)propan-2-ol], with under 0.5 µg/mL.
Same read-out and setting: in the case of `OC(Cn1cnnn1)(c1ccc(F)cc1F)C(F)(F)c1ccc(-c2cc(F)ccc2F)cn1` (centres unmarked) [Example 10, 2-(2,4-Difluorophenyl)-1-(5-(2,5-difluorophenyl)pyridin-2-yl)-1,1-difluoro-3-(1H-tetrazol-1-yl)propan-2-ol] it was under 0.5 µg/mL.
With `OC(Cn1cnnn1)(c1ccc(F)cc1F)C(F)(F)c1ccc(-c2ccc(OCC(F)(F)F)cc2)cn1` (centres unmarked) [Example 11, 2-(2,4-Difluorophenyl)-1,1-difluoro-3-(1H-tetrazol-1-yl)-1-(5-(4-(2,2,2-trifluoroethoxy)phenyl)pyridin-2-yl)propan-2-ol], under “rating scale”, the “Candida MIC Rating” value is recorded as “A (≤0.5)”.
On to `OC(Cn1cnnn1)(c1ccc(F)cc1F)C(F)(F)c1ccc(-c2ccc(OCC(F)(F)C(F)(F)F)cc2)cn1` (centres unmarked) [Example 12, 2-(2,4-Difluorophenyl)-1,1-difluoro-1-(5-(4-(2,2,3,3,3-pentafluoropropoxy)phenyl)pyridin-2-yl)-3-(1H-tetrazol-1-yl)propan-2-ol], for which the MIC (read-out: Candida MIC Rating) is under 0.5 µg/mL.
Same read-out and setting: in the case of `OC(Cc1cc[nH]n1)(c1ccc(F)cc1F)C(F)(F)c1ccc(-c2ccc(OC(F)(F)F)cc2)cn1` (centres unmarked) [Example 15, 2-(2,4-Difluorophenyl)-1,1-difluoro-3-(1H-pyrazol-3-yl)-1-(5-(4-(trifluoromethoxy)phenyl)pyridin-2-yl)propan-2-ol] it was under 0.5 µg/mL.
`OC(Cn1cncn1)(c1ccc(F)cc1F)C(F)(F)c1ccc(-c2ccc(F)cc2)cn1` (centres unmarked) [Example 16, 2-(2,4-Difluorophenyl)-1,1-difluoro-1-(5-(4-fluorophenyl)pyridin-2-yl)-3-(1H-1,2,4-triazol-1-yl)propan-2-ol]: the MIC under setting [1] is under 0.5 µg/mL.
On the same count and under the same terms, in the case of `OC(Cn1cncn1)(c1ccc(F)cc1F)C(F)(F)c1ccc(-c2ccc(OC(F)(F)F)cc2)cn1` (centres unmarked) [Example 18, 2-(2,4-Difluorophenyl)-1,1-difluoro-3-(1H-1,2,4-triazol-1-yl)-1-(5-(4-(trifluoromethoxy)phenyl)pyridin-2-yl) propan-2-ol] it was under 0.5 µg/mL; in that of `OC(Cn1ncnn1)(c1ccc(F)cc1F)C(F)(F)c1ccc(-c2ccc(OCC(F)(F)F)cc2)cn1` (centres unmarked) [Example 20, 2-(2,4-Difluorophenyl)-1,1-difluoro-3-(2H-tetrazol-1-yl)-1-(5-(4-(2,2,2-trifluoroethoxy)phenyl)pyridin-2-yl)propan-2-ol], over 4 µg/mL.
The same measure, in the same setting: then `OC(Cn1ncnn1)(c1ccc(F)cc1F)C(F)(F)c1ccc(-c2cccc(F)c2)cn1` (centres unmarked) [Example 21], with 1.5 to 4 µg/mL (≈ 3.35 to 8.94 µM); and `OC(Cn1ncnn1)(c1ccc(F)cc1F)C(F)(F)c1ccc(-c2ccc(C(F)(F)F)cc2)cn1` (centres unmarked) [Example 22], with 1.5 to 4 µg/mL (≈ 3.02 to 8.04 µM).
Same read-out and setting: then `Oc1ccc(-c2ccc(C(F)(F)C(O)(Cn3cnnn3)c3ccc(F)cc3F)nc2)cc1` (centres unmarked) [Example 23, 4-(6-(2-(2,4-Difluorophenyl)-1,1-difluoro-2-hydroxy-3-(1H-tetrazol-1-yl)propyl)pyridin-3-yl)phenol], with under 0.5 µg/mL.
As for `CC(C)c1cccc(-c2ccc(C(F)(F)C(O)(Cn3cnnn3)c3ccc(F)cc3F)nc2)c1` (centres unmarked) [Example 24, 2-(2,4-Difluorophenyl)-1,1-difluoro-1-(5-(3-isopropylphenyl)pyridin-2-yl)-3-(1H-tetrazol-1-yl)propan-2-ol], the MIC under setting [1] is under 0.5 µg/mL.
For `OC(Cn1cnnn1)(c1ccc(F)cc1F)C(F)(F)c1ccc(-c2ccc(F)c(F)c2)cn1` (centres unmarked) [Example 25, 2-(2,4-Difluorophenyl)-1-(5-(3,4-difluorophenyl)pyridin-2-yl)-1,1-difluoro-3-(1H-tetrazol-1-yl)propan-2-ol], the MIC under setting [1] is under 0.5 µg/mL.
For the molecule `OC(Cn1cnnn1)(c1ccc(F)cc1F)C(F)(F)c1ccc(-c2cccc(OC(F)F)c2)cn1` (centres unmarked) [Example 26, 1-(5-(3-(Difluoromethoxy)phenyl)pyridin-2-yl)-2-(2,4-difluorophenyl)-1,1-difluoro-3-(1H-tetrazol-1-yl)propan-2-ol], the MIC under setting [1] is under 0.5 µg/mL.
Same read-out and setting: in the case of `OC(Cn1cnnn1)(c1ccc(F)cc1F)C(F)(F)c1ccc(-c2ccc(SC(F)(F)F)cc2)cn1` (centres unmarked) [Example 27, 2-(2,4-Difluorophenyl)-1,1-difluoro-3-(1H-tetrazol-1-yl)-1-(5-(4-((trifluoromethyl)thio)phenyl)pyridin-2-yl)propan-2-ol] it was under 0.5 µg/mL; in that of `CC(C)(C)Oc1ccc(-c2ccc(C(F)(F)C(O)(Cn3cnnn3)c3ccc(F)cc3F)nc2)cc1` (centres unmarked) [Example 28, 1-(5-(4-(tert-Butoxy)phenyl)pyridin-2-yl)-2-(2,4-difluorophenyl)-1,1-difluoro-3-(1H-tetrazol-1-yl)propan-2-ol], under 0.5 µg/mL; in that of `OC(Cn1cnnn1)(c1ccc(F)cc1F)C(F)(F)c1ccc(-c2ccc(Cl)c(F)c2)cn1` (centres unmarked) [Example 29, 1-(5-(4-Chloro-3-fluorophenyl)pyridin-2-yl)-2-(2,4-difluorophenyl)-1,1-difluoro-3-(1H-tetrazol-1-yl)propan-2-ol], under 0.5 µg/mL.
Still for that read-out and setting: in the case of `Oc1cccc(-c2ccc(C(F)(F)C(O)(Cn3cnnn3)c3ccc(F)cc3F)nc2)c1` (centres unmarked) [Example 30, 3-(6-(2-(2,4-Difluorophenyl)-1,1-difluoro-2-hydroxy-3-(1H-tetrazol-1-yl)propyl)pyridin-3-yl)phenol] it was under 0.5 µg/mL; in that of `OC(Cn1cnnn1)(c1ccc(F)cc1F)C(F)(F)c1ccc(-c2cccc(C(F)(F)F)c2)cn1` (centres unmarked) [Example 31, 2-(2,4-Difluorophenyl)-1,1-difluoro-3-(1H-tetrazol-1-yl)-1-(5-(3-(trifluoromethyl)phenyl)pyridin-2-yl)propan-2-ol], under 0.5 µg/mL; in that of `O=[N+]([O-])c1ccc(-c2ccc(C(F)(F)C(O)(Cn3cnnn3)c3ccc(F)cc3F)nc2)cc1` (centres unmarked) [Example 32, 2-(2,4-Difluorophenyl)-1,1-difluoro-1-(5-(4-nitrophenyl)pyridin-2-yl)-3-(1H-tetrazol-1-yl)propan-2-ol], under 0.5 µg/mL.
The same measure, in the same setting: in the case of `O=C(c1ccc(-c2ccc(C(F)(F)C(O)(Cn3cnnn3)c3ccc(F)cc3F)nc2)cc1)C(F)(F)F` (centres unmarked) [Example 33, 1-(4-(6-(2-(2,4-Difluorophenyl)-1,1-difluoro-2-hydroxy-3-(1H-tetrazol-1-yl)propyl)pyridin-3-yl)phenyl)-2,2,2-trifluoroethanone] it was under 0.5 µg/mL.
For the molecule `OC(Cn1cnnn1)(c1ccc(Cl)cc1F)C(F)(F)c1ccc(-c2ccc(OC(F)(F)F)cc2)cn1` (centres unmarked) [Example 34, 2-(4-Chloro-2-fluorophenyl)-1,1-difluoro-3-(1H-tetrazol-1-yl)-1-(5-(4-(trifluoromethoxy)phenyl)pyridin-2-yl)propan-2-ol], the MIC under setting [1] was under 0.5 µg/mL.
On the same count and under the same terms, in the case of `OC(Cn1cnnn1)(c1ccc(F)cc1F)C(F)(F)c1ccc(-c2ccccc2)cn1` (centres unmarked) [Example 35, 2-(2,4-Difluorophenyl)-1,1-difluoro-1-(5-phenylpyridin-2-yl)-3-(1H-tetrazol-1-yl)propan-2-ol] it was under 0.5 µg/mL.
Still for that read-out and setting: in the case of `OC(Cn1cnnn1)(c1ccc(F)cc1F)C(F)(F)c1ccc(-c2ccc(N3CCOCC3)cc2)cn1` (centres unmarked) [Example 36, 2-(2,4-Difluorophenyl)-1,1-difluoro-1-(5-(4-morpholinophenyl)pyridin-2-yl)-3-(1H-tetrazol-1-yl)propan-2-ol] it was under 0.5 µg/mL.

What is called MIC is the lowest concentration that inhibits growth of the organism.
